Laboratory results taken from publication PMC4980415 (Psychopharmacology, 2016).
Counter-ions that a name gives are not always drawn.

How the values were obtained:
NK3 (h), neurokinin = molecular target: T1, NK3 (h), neurokinin (Homo sapiens, UniProt P29371); assay: Off-target binding, General SEP II panel; conditions: 10 μM ITI-214, mean of n = 2
T1 construct: Caliper Life Sciences (contract screen)
T1 sequence (P29371 1-465): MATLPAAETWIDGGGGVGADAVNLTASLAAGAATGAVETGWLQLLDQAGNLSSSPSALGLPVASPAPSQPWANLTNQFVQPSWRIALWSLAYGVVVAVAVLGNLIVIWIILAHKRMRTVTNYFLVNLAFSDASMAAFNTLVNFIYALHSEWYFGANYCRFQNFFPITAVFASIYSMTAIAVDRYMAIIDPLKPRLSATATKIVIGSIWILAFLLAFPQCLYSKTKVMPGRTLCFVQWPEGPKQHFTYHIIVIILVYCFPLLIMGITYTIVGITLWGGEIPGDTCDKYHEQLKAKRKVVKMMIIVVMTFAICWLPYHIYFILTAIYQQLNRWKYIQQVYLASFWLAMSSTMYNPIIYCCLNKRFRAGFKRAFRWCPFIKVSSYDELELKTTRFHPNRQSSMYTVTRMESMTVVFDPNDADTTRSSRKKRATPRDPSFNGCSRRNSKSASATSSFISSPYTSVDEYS

[1] = healthy volunteers and patients with schizophrenia; no reference given; cited from earlier work
[2] = tested on: memory acquisition in male Wistar rats; assay: Novel object recognition (NOR): acquisition, drug 2 h before T1; type: in vivo, rat; conditions: for Exploration time e1 (T1) / Exploration time e2 (T2): 2 h before T1, 24 h interval
Procedure: (§1) The drug was administered, per os (po), by gavage to rats in a volume of 2 ml/kg body weight. Oral dosing solutions were prepared fresh daily. […] The pH of the dosing solution was adjusted to ~pH 5.5 by dropwise addition of 0.1 N NaOH in saline and volume adjusted by addition of saline in preparation for intraperitoneal (ip) dosing. […] Control treatments were always the vehicle solutions of the corresponding drugs.
(§2) The object recognition test was performed as described elsewhere (Ennaceur and Delacour [1988]; Akkerman et al. 2014). The apparatus consisted of a circular arena, 83 cm in diameter. Half of the 40-cm-high wall was made of gray polyvinyl chloride, the other half of transparent polyvinyl chloride. The light intensity was equal in the different parts of the apparatus, as fluorescent red tubes provided a constant illumination of about 20 lx on the floor of the apparatus. Two objects were placed in a symmetrical position at about 10 cm from the gray wall. Four different sets of objects were used. The different objects were (1) a cone consisting of a gray polyvinyl chloride base (maximal diameter 18 cm) with a collar on top made of brass (total height 16 cm), (2) a standard 1 L transparent glass bottle (diameter 10 cm, height 22 cm) filled with water, (3) a large metal cube (10.0 × 5.0 × 7.5 cm) with two holes (diameter 1.9 cm), and (4) a large aluminum cube with a tapering top (13.0 × 8.0 × 8.0 cm). The objects used in this study were carefully selected to be “novelty neutral,” that is to say the rats have no innate preference for one over the other. In all cases, objects were of sufficient size and weight that rats could not move the objects.
(§3) A testing session consisted of two trials. The duration of each trial was 3 min. During the first trial (T1), the apparatus contained two identical objects (samples). Rats were placed in the apparatus facing the wall at the middle of the front (transparent) segment. After the first exploration period, the rat was put back in its home cage. Subsequently, after a 24-h delay interval, the rat was put in the apparatus for the second trial (T2). The times spent in exploring each object during T1 and T2 were recorded manually using a personal computer.
(§4) Exploration was defined as follows: directing the nose to the object at a distance of no more than 2 cm and/or touching the object with the nose. Sitting on the object was not considered as exploratory behavior. In order to avoid the presence of olfactory cues, the objects were always thoroughly cleaned with a 70 % ethanol solution before each trial. All combinations and locations of objects were used in a balanced manner to reduce potential biases due to preferences for particular locations or objects.
(§5) During the first 2 weeks after animal arrival, the animals were handled daily. They were then adapted to the procedure over the period of 2 days by allowing them to explore the apparatus (without any objects) for 3 min twice each day. […] After this, the rats were assigned to treatment conditions in a balanced manner, thereby insuring an equal distribution of object combinations among the treatment conditions. […] In all experiments, a 24-h inter-trial interval was used. In all cases, the experimenter was unaware of the treatment conditions that were being tested.
(§6) The basic measure recorded was the time spent by each rat exploring an object during T1 and T2. The time spent in exploring the two identical samples was represented by “a1” and “a2.” The time spent in T2 in exploring the sample and new object was represented by “a” and “b,” respectively. The following variables were calculated: e1 = a1 + a2, e2 = a + b, and d2 = (b − a) / e2. The e1 and e2 are measures of the total exploration time of both objects during T1 and T2, respectively. Differences in exploration times between treatment conditions were analyzed using a t test or one-way ANOVA. […]

[3] = tested on: early memory consolidation in male Wistar rats; assay: Novel object recognition (NOR): early consolidation, drug 4 min after T1; type: in vivo, rat; conditions: 4 min after T1 (head prints T2 +4 min)
Procedure: as §1, §2, §3, §4, §5, §6

[4] = tested on: Ca^2+ channel (L, DHP site); assay: Off-target binding, General SEP II panel; conditions: 10 μM ITI-214, mean of n = 2
PDE1 isoforms = assay: PDE1 potency and selectivity versus other PDE families; type: biochemical; conditions: span of Table 1 values; read-out: Ki for inhibition of recombinant or bovine PDE1 enzymes
[5] = tested on: Alpha 2 (non-selective), adrenergic; assay: Off-target binding, General SEP II panel; conditions: 10 μM ITI-214, mean of n = 2
H3 (h), histamine = molecular target: T2, H3 (h), histamine (Homo sapiens, UniProt Q9Y5N1); assay: Off-target binding, General SEP II panel; conditions: 10 μM ITI-214, mean of n = 2
T2 construct: Caliper Life Sciences (contract screen)
T2 sequence (Q9Y5N1 whole entry): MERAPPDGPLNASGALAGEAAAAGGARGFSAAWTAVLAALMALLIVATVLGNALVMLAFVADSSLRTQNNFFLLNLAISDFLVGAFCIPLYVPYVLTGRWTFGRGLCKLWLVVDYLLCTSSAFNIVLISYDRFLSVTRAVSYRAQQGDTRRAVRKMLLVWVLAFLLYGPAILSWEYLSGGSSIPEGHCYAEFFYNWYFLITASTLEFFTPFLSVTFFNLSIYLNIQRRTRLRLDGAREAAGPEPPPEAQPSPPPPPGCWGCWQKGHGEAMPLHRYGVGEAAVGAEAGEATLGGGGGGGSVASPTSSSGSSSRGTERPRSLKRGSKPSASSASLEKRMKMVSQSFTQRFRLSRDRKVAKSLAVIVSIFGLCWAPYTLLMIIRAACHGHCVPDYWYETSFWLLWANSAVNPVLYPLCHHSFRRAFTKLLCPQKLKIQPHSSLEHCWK

PDE1 (bovine brain) = assay: PDE activity IMAP assay, bovine brain PDE1; type: biochemical; conditions: Fl-cGMP substrate, CaCl2/calmodulin

## CN1C(=O)c2c(nn(Cc3ccc(-c4cccc(F)n4)cc3)c2Nc2ccccc2)N2C1=N[C@@H]1CCC[C@@H]12 [ITI-214, (6aR,9aS)-2-(4-(6-fluoropyridin-2-yl)benzyl)-5-methyl-3-(phenylamino)-5,6a,7,8,9,9a-hexahydrocyclopenta-[4,5]imidazo[1,2-a]pyrazolo[4,3-e]pyrimidin-4-(2H)-one phosphate salt]
NK3 (h), neurokinin
  % Binding: 64.65%
[1]
  safety and tolerability: safe and well-tolerated
[2]; 0.1 mg/kg po
  Exploration time e1 (T1): 28.38 (1.86) s
  Exploration time e2 (T2): 27.33 (1.48) s
[2]; 0.3 mg/kg po
  Exploration time e1 (T1): 27.55 (1.62) s
  Exploration time e2 (T2): 26.10 (1.69) s
[2]; 1 mg/kg po
  Exploration time e1 (T1): 27.97 (1.78) s
  Exploration time e2 (T2): 29.38 (1.38) s
[2]; 3 mg/kg po
  Exploration time e1 (T1): 27.28 (1.74) s
  Exploration time e2 (T2): 28.73 (1.62) s
[2]; 10 mg/kg po
  Exploration time e1 (T1): 26.21 (1.97) s
  Exploration time e2 (T2): 28.15 (1.38) s
[2]; 0.1–10 mg/kg po 2 h before T1
  effect on exploratory behavior during T1 or T2: no effect on exploratory behavior
[3]; 1 mg/kg po
  Exploration time e1 (T1): 26.36 (1.93) s
  Exploration time e2 (T2): 29.66 (1.94) s
[3]; 3 mg/kg po
  Exploration time e1 (T1): 25.02 (2.20) s
  Exploration time e2 (T2): 30.55 (1.84) s
[3]; 10 mg/kg po
  Exploration time e1 (T1): 30.01 (1.62) s
  Exploration time e2 (T2): 31.35 (1.71) s
[4]
  % Binding: 73.28%
PDE1 isoforms
  Ki: 34 to 58 pM
[5]
  % Binding: 34.94%
H3 (h), histamine
  % Binding: 32.54%
PDE1 (bovine brain)
  Ki: 58 pM
